Experimental data reported in patent US5750720A, “4-[(thien-3-yl)methyl]-imidazole analgesics” (Ortho Pharmaceutical Corporation, priority 1996, dated 1998).
Structures can show the parent of a compound that is named as a salt. Where two headings read alike, the source gives them in different places.

Experiments:
[1] = biological target: T1, Alpha2D adrenergic receptor (Rattus norvegicus, UniProt P22909); assay: Alpha2D adrenergic receptor binding assay (3H-paraaminoclonidine, rat cortex synaptic membranes); design: species or system Wistar rats
T1 construct: aliquots of the synaptic membrane fraction; from tissue; host or cells: rat cerebral cortex, synaptic membrane fraction
T1 sequence (P22909 1-465): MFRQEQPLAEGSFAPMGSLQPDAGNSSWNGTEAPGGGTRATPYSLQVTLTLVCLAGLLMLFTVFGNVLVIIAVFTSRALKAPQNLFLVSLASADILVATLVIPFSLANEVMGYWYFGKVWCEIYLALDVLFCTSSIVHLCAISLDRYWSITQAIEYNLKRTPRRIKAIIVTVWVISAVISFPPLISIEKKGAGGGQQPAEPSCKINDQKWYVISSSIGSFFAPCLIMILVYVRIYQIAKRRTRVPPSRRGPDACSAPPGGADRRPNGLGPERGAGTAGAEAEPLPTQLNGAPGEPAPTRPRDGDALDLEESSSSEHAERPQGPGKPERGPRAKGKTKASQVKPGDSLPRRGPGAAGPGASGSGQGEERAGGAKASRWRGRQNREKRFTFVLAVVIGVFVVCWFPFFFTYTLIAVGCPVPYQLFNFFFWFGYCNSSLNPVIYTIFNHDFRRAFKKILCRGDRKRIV
Protocol: Alpha2D adrenergic receptor binding assay
Male, Wistar rats (150-250 g, VAF, Charles River, Kingston, N.Y.) are sacrificed by cervical dislocation and their brains removed and placed immediately in ice cold HEPES buffered sucrose. The cortex is dissected out and homogenized in 20 volumes of HEPES sucrose in a Teflon®-glass homogenizer. The homogenate is centrifuged at 1000 g for 10 min, and the resulting supernatant centrifuged at 42,000 g for 10 min. The resulting pellet is resuspended in 30 volumes of 3 mM potassium phosphate buffer, pH 7.5, preincubated at 25° C. for 30 min and recentrifuged. The resulting pellet is resuspended as described above and used for the receptor binding assay. Incubation is performed in test tubes containing phosphate buffer, 2.5 mM MgCl2, aliquots of the synaptic membrane fraction, the ligand ^3 H-paraaminoclonidine and test drug at 25°0 C. for 20 min. The incubation is terminated by filtration of the tube contents through glass fiber filter sheets. Following washing of the sheets with 10 mM HEPES buffer, the adhering radioactivity is quantified by liquid scintillation spectrometry.
Binding of the test drug to the receptor is determined by comparing the amount of radiolabeled ligand bound in control tubes without drug to the amount of radiolabeled ligand bound in the presence of the drug. Dose-response data are analyzed with LIGAND, a nonlinear curve fitting program designed specifically for the analysis of ligand binding data. This assay is described by Simmons, R. M. A., and Jones, D. J., Binding of [^3 H-]prazosin and [^3 H-]p-aminoclonidine to α-Adrenoceptors in Rat Spinal Cord, Brain Research 445:338-349, 1988.

[2] = test system: acetylcholine bromide-induced abdominal constriction response; assay: Mouse Acetylcholine Bromide-Induced Abdominal Constriction Assay; format: in vivo; details: p.o., 30 min before acetylcholine bromide 5.5 mg/kg i.p.; for inhibition at 30 mg/kg: @30 mpk; for ED50: po, 0.5 h, dose producing 50% analgesia
Protocol: Mouse Acetylcholine Bromide-Induced Abdominal Constriction Assay
The mouse acetylcholine bromide-induced abdominal constriction assay, as described by Collier et al. in Brit. J. Pharmacol. Chem. Ther., 32:295-310, 1968, with minor modifications was used to assess analgesic potency of the compounds herein. The test drugs or appropriate vehicle were administered orally (p.o.) and 30 minutes later the animal received an intraperitoneal (i.p.) injection of 5.5 mg/kg acetylcholine bromide (Matheson, Coleman and Bell, East Rutherford, N.J.). The mice were then placed in groups of three into glass bell jars and observed for a ten minute observation period for the occurrence of an abdominal constriction response (defined as a wave of constriction and elongation passing caudally along the abdominal wall, accompanied by a twisting of the trunk and followed by extension of the hind limbs). The percent inhibition of this response to a nociceptive stimulus (equated to % analgesia) was calculated as follows: The % Inhibition of response, i.e., % analgesia is equal to the difference between the number of control animals response and the number of drug-treated animals response times 100 divided by the number of control animals responding.
At least 15 animals were used for control and in each of the drug treated groups. At least three doses were used to determine each dose response curve and ED50 (that dose which would produce 50% analgesia). The ED50 values and their 95% fiducial limits were determined by a computer assisted probit analysis.

α2-adrenoceptor [3] = details: cited from earlier work; for hypotensive effect: animals and humans, magnitude relatively insignificant
α2-adrenoceptor [4] = details: non-opiate mechanism, without opiate liability; cited from earlier work
[5] = 3H-paraaminoclonidine, rat cortex, 25° C, 20 min, read-out: Ki

Row | Compound | Ki [1] [nM] | inhibition at 30 mg/kg [2] [%] | Ki [1, 5] [nM] | ED50 [2] [mg/kg] | other results
1 | CCc1cscc1C(C)c1c[nH]cn1 (stereo not shown) [Cp-10, 4-[1-(4-ethylthien-3-yl)ethyl]-1H-imidazole fumarate] | 0.28 | 100 | – | – | –
2 | Cc1csc(C)c1Cc1c[nH]cn1 [Cp-8, 4-[(2,4-Dimethylthien-3-yl)methyl]-1H-imidazole Fumarate] | 0.1 | 100 | – | – | –
3 | Cc1sccc1Cc1c[nH]cn1 [Cp-1, 4-[(2-Methylthien-3-yl)methyl]-1H-imidazole Fumarate] | 0.44 | 100 | – | – | –
4 | C=C(c1c[nH]cn1)c1csc(Br)c1Br | – | 27 | 0.98 | – | –
5 | Cc1cscc1C(C)c1c[nH]cn1.O=C(O)/C=C/C(=O)O (stereo not shown) [Cp-3, 4-[1-(4-Methylthien-3-yl)ethyl]-1H-imidazole Fumarate] | 0.39 | – | – | 0.4 | –
6 | CCC(c1c[nH]cn1)c1cscc1C (stereo not shown) [Cp-4, 4-[1-(4-Methylthien-3-yl)propyl]-1H-imidazole Fumarate] | 0.97 | 100 | – | – | –
7 | Clc1cccc(Cl)c1NC1=NCCN1 [Clonidine] | – | – | – | – | other behavioral and physiological effects (α2-adrenoceptor [3]; in vivo): sedation and cardiovascular effects; analgesia (α2-adrenoceptor [4]): produce analgesia through a non-opiate mechanism
8 | Cc1cc(Cc2c[nH]cn2)c(C)s1.O=C(O)/C=C/C(=O)O [Cp-5, 4-[(2,5-dimethylthien-3-yl)methyl]-1H-imidazole Fumarate] | 0.69 | – | – | 1.3 | –
9 | Cc1csc(C)c1C(C)c1c[nH]cn1 (stereo not shown) | – | – | 33.5 | 7.8 | –
10 | Cc1sccc1C(C)c1c[nH]cn1 (stereo not shown) | – | – | 2.3 | 1.6 | –
11 | Cc1cccc(Cc2c[nH]cn2)c1C [detomidine] | – | – | – | – | hypotensive effect (α2-adrenoceptor [3]): hypotensive in animals and in humans, but the magnitude of this cardiovascular effect is relatively insignificant
12 | CC(c1ccsc1)c1c[nH]cn1 (stereo not shown) | – | 100 | 2.5 | – | –
13 | Cc1cscc1Cc1c[nH]cn1.O=C(O)/C=C/C(=O)O [Cp-2, 4-[(4-Methylthien-3-yl)methyl]-1H-imidazole Fumarate] | 0.47 | – | – | 0.4 | –
14 | c1nc(Cc2ccsc2)c[nH]1 | – | – | 3.1 | 6.4 | –
15 | CCc1cscc1Cc1c[nH]cn1 [Cp-9, 4-[(4-ethylthien-3-yl)methyl]-1H-imidazole fumarate] | 0.29 | 100 | – | – | –
16 | CCc1sccc1Cc1c[nH]cn1.O=C(O)/C=C/C(=O)O [Cp-7, 4-[(2-ethylthien-3-yl)methyl]-1H-imidazole fumarate] | 0.07 | – | – | 0.4 | –
17 | CCc1cc(C(C)c2c[nH]cn2)c(CC)s1 (stereo not shown) | – | 67 | 11.4 | – | –
18 | CCc1sccc1C(C)c1c[nH]cn1 (stereo not shown) | – | 100 | 1.1 | – | –
19 | CCc1cc(Cc2c[nH]cn2)c(CC)s1.O=C(O)/C=C/C(=O)O [Cp-6, 4-[(2,5-diethylthien-3-yl)methyl]-1H-imidazole Fumarate] | 0.4 | – | – | 3.7 | –
20 | Cc1cccc(C(C)c2cnc[nH]2)c1C (racemic) [Medetomidine] | – | – | – | – | hypotensive effect (α2-adrenoceptor [3]): hypotensive in animals and in humans, but the magnitude of this cardiovascular effect is relatively insignificant
21 | Cc1cc(C(C)c2c[nH]cn2)c(C)s1 (stereo not shown) | – | 100 | 6.1 | – | –
